Values quoted from earlier work, collected in US20160354391A1, “USE IN SINGLE PILL/TABLET/CAPSULE OF MINOCYCLINE, FLUCONAZOLE AND ATORVASTATIN IN THE TREATMENT OF MULTIPLE SCLEROSIS” (priority 2014, published 2016).

Tests used:
[1] = in vivo

elimination time [1] | Compound | patients who develop thyroid autoimmune diseases
up to 2 years | C/C(O)=C(\C#N)C(=O)Nc1ccc(C(F)(F)F)cc1 [Teriflunomide] | –
– | Alemtuzumab | approximately 40%
